# From publication PMC12029179, “6-Chlorocoumarin Conjugates with Nucleobases and Nucleosides as Potent Anti-Hepatitis C Virus Agents” (Molecules, 2025)
# Where two headings read alike, the source gives them in different places. Numbered stars: 1 amine (or outer) side, 2 acyl side, 3 side chain; on linkers, the order of the positions; unused ones are H or OH. Bridge positions count the residues as written; N and C are the ends. Square brackets hold non-standard residues; d marks the D form. Peptide text beside a SMILES is read from it. I, II: the chains in the order shown. Actinocin(9to1) = Cc1c2oc3c(C)ccc(C(=O)[*:1])c3nc-2c(C(=O)[*:2])c(N)c1=O; NMeV = CN[C@H](C(=O)O)C(C)C; Sar = CNCC(=O)O
# What was measured:
# Detroit 551 cells = assay: Cell viability (MTS) assay in Detroit 551 cells; format: cell-based; settings: for IC50: Homo sapiens, read-out: IC50 (cell survival rate of 50%)
# Description: Detroit 551 cells, a human fibroblast cell line, are routinely employed to assess both acute and chronic toxicity in normal human cells. Evaluating the cytotoxicity of compounds in Detroit 551 cells helps to identify potential safety concerns early in drug development. The three promising leads, 7a, 7b, and 18, were tested in a Detroit 551 assay using the antineoplastic and antibiotic agent actinomycin D as a positive control.
# Detroit 551 cells were harvested and seeded into a 96-well plate, then incubated at 37 °C for 24 h. A serial dilution of the test compound was prepared in eight three-fold concentrations (20,000 nM, 6667 nM, 2222 nM, 741 nM, 247 nM, 82 nM, 27 nM, and 9 nM), and 10 µL of each dilution was added to the corresponding wells. The plate was then returned to 37 °C for an additional 72 h of incubation. After this incubation, a 3-(4,5-dimethylthiazol-2-yl)-5-(3-carboxymethoxyphenyl)-2-(4-sulfophenyl)-2H-tetrazolium (MTS) assay medium (mixed in a 2:0.1 ratio of MTS–phenazine methyl sulfate (PMS)) was prepared. The plate was moved to a biological safety cabinet, and 21 µL of the MTS medium was added to each well. The plate was then incubated at 37 °C for 90 min before absorbance was measured at 490 nm on a Victor 2 plate reader (PerkinElmer, Inc., Waltham, MA, USA). Data were subsequently analyzed to assess cytotoxicity.
# [1] = Host-cell metabolic activity (MTS assay) in Huh 5-2 cells; format: cell-based; settings: human
# Description: (§1) An evaluation of the antiviral effects of the conjugated compounds was initially performed in Huh 5-2 cells utilizing the HCV genotype 1b subgenomic replicon system, based on previously reported procedures. By analyzing the dose–response curves, we calculated the concentration of each compound that inhibited the viral replication by 50% (EC50) and the concentration that reduced the host-cell metabolic activity by 50% (CC50). These values were then used to compute the selectivity index (SI = CC50/EC50), which serves as an indicator of a compound’s therapeutic window. Even if an EC50 was determined from the dose–response curve in the antiviral assay, the compounds that were evaluated may not qualify as promising hits. […] It is likely that the antiviral activity observed in the other compounds is due to their nonspecific or pleiotropic effects on the host cell.
# [2] = test system: HCV genotype 1b subgenomic replicon; assay: Anti-HCV assay in Huh 5-2 cells (luciferase replicon readout); format: cell-based, hepatitis C virus (HCV); settings: for EC50: Huh-5-2, Huh 5-2 cells, luminescence
# Description: as §1
# Huh 5-2 cells were plated in white, tissue culture-treated 96-well view plates (Packard, Canberra, Canada) at a density of 5 × 10^3 cells per well, using complete Dulbecco’s Modified Eagle Medium (DMEM) containing 250 µg/mL G418. Following 24 h incubation at 37 °C with 5% CO2, the medium was discarded and serial 3-fold dilutions of the test compounds—prepared in complete DMEM lacking G418—were added to reach a final volume of 100 µL per well. After an additional 4-day incubation period under the same conditions, the medium was removed, and luciferase activity was assessed using the Steady-Glo luciferase assay kit (Promega, Leiden, The Netherlands). Luminescence was measured with a Luminoskan Ascent reader (Thermo, Vantaa, Finland). The EC50 value was determined as the compound concentration resulting in a 50% decrease in luciferase signal.
# HCV subgenomic replicon = assay: Anti-HCV assay in Huh 9-13 cells (real-time quantitative RT-PCR of replicon RNA); format: cell-based, hepatitis C virus (HCV); settings: for % replicon RNA: normalized against no-drug control; for EC50: Hepatitis C virus
# Description: Furthermore, the antiviral activity of three of the hits (i.e., 7a, 7b, and 18) was validated by evaluation of the dose–response effect of treatment with the compounds at the level of viral RNA replication in the Huh 9-13 assay system. The real-time quantitative RT-PCR readout was used.
# Huh 9-13 cells were seeded at 5 × 10^3 cells per well into 96-well plates containing complete DMEM supplemented with 1000 µg/mL G418. […] After 4 days of incubation, the culture medium was removed, and the cell monolayers were washed once with phosphate-buffered saline (PBS). Cells were then lysed using 350 µL of RLT buffer (Qiagen, Venlo, The Netherlands) as per the manufacturer’s protocol, and the lysates were stored at −80 °C for future analysis. Upon completion of sample collection, RNA was extracted, and the samples were analyzed through quantitative real-time PCR to measure their HCV replicon content. The real-time RT-PCR data for all samples were calibrated against the “no-drug control”.
# * After collection of all samples, RNA was extracted and samples were analyzed by quantitative real-
# time PCR for their HCV replicon content. Real-time RT-PCR values of all assayed samples were
# normalized against the “no-drug control”.
# [3] = Host-cell metabolic activity in Huh 9-13 cells; format: cell-based; settings: human
# Huh 9-13 cells = assay: Host-cell metabolic activity in Huh 9-13 cells; format: cell-based
# [4] = primary screening, tested starting at 50 μg/mL
# [5] = Hepatitis C virus, primary screening, tested starting at 50 μg/mL
# [6] = Huh 5-2 cells, primary screening starting at 50 μg/mL
# [7] = secondary screen starting at 125 μg/mL
# [8] = Hepatitis C virus, secondary screen starting at 125 μg/mL, average of triplicate
# [9] = Huh 5-2 cells, secondary screen starting at 125 μg/mL
structure (smiles),measurement,setting,value
"Cc1c2oc3c(C)ccc(C(=O)N[C@@H]4C(=O)N[C@H](C(C)C)C(=O)N5CCC[C@H]5C(=O)N(C)CC(=O)N(C)[C@@H](C(C)C)C(=O)O[C@@H]4C)c3nc-2c(C(=O)N[C@@H]2C(=O)N[C@H](C(C)C)C(=O)N3CCC[C@H]3C(=O)N(C)CC(=O)N(C)[C@@H](C(C)C)C(=O)O[C@@H]2C)c(N)c1=O [Actinomycin D, actinomycin D, reference compound] (I: T[dV]P[Sar][NMeV] / II: T[dV]P[Sar][NMeV]; ester I:1-I:C, II:1-II:C; linker I:N-II:N via Actinocin(9to1))",IC50,"Detroit 551 cells; Detroit 551, 72 h",15.4 µM
"Nc1ncnc2[nH]c(SCc3cc4cc(Cl)ccc4oc3=O)nc12 [Compound 3a, 8-[(6′-Chlorocoumarin-3′-yl)methylthio]adenine]",CC50,[1]; [4],69 µM
same,EC50,[2]; [5],10 µM
same,SI (CC50/EC50),[2]; [6],6.7
"Nc1ncnc2c1nc(SCc1cc3cc(Cl)ccc3oc1=O)n2[C@@H]1O[C@H](CO)[C@@H](O)[C@H]1O [Compound 3b, 8-[(6′-Chlorocoumarin-3′-yl)methylthio]adenosine]",CC50,[1]; [4],48 µM
same,EC50,[2]; [5],32 µM
same,SI (CC50/EC50),[2]; [6],1.5
"Nc1nc2c(nc(SCc3cc4cc(Cl)ccc4oc3=O)n2[C@@H]2O[C@H](CO)[C@@H](O)[C@H]2O)c(=O)[nH]1 [Compound 5a, 8-[(6′-Chlorocoumarin-3′-yl)methylthio]guanosine]",CC50,[1]; [4],> 98 µM
same,EC50,[2]; [5],> 98 µM
"Nc1nc2[nH]c(SCc3cc4cc(Cl)ccc4oc3=O)nc2c(=O)[nH]1 [Compound 5b, 8-[(6’-Chlorocoumarin-3’-yl)methylthio]guanine]",CC50,[1]; [4],> 133 µM
same,EC50,[2]; [5],51 µM
same,SI (CC50/EC50),[2]; [6],>2.6
"O=c1oc2ccc(Cl)cc2cc1CSc1ncnc2[nH]cnc12 [Compound 7a, 6-[(6′-Chlorocoumarin-3′-yl)methylthio]purine]",CC50,[1]; [4],> 145 µM
same,CC50,[1]; [7],> 363 µM
same,cell death at highest tested concentration,"Detroit 551 cells; Detroit 551 cells, 20 μM",none of the three compounds induced cell death
same,IC50,"Detroit 551 cells; Detroit 551 cells, 72 h incubation, tested starting at 20.0 μM",> 20 µM
same,EC50,[2]; [5],8.6 µM
same,EC50,[2]; [8],4.8 µM
same,SI (CC50/EC50),[2]; [6],>17
same,SI (CC50/EC50),[2]; [9],>76
same,SI (CC50/EC50),HCV subgenomic replicon,>20
same,"Quantity (HCV replicon RNA, real-time PCR)",HCV subgenomic replicon; 0.023 µg/ml,1.12E-04
same,% replicon RNA,HCV subgenomic replicon; 0.023 µg/ml,93%
same,"Quantity (HCV replicon RNA, real-time PCR)",HCV subgenomic replicon; 0.069 µg/ml,1.44E-04
same,% replicon RNA,HCV subgenomic replicon; 0.069 µg/ml,119%
same,"Quantity (HCV replicon RNA, real-time PCR)",HCV subgenomic replicon; 0.206 µg/ml,1.36E-04
same,% replicon RNA,HCV subgenomic replicon; 0.206 µg/ml,112%
same,"Quantity (HCV replicon RNA, real-time PCR)",HCV subgenomic replicon; 0.617 µg/ml,8.96E-05
same,% replicon RNA,HCV subgenomic replicon; 0.617 µg/ml,74%
same,"Quantity (HCV replicon RNA, real-time PCR)",HCV subgenomic replicon; 5.56 µg/ml,2.70E-05
same,% replicon RNA,HCV subgenomic replicon; 5.56 µg/ml,22%
same,"Quantity (HCV replicon RNA, real-time PCR)",HCV subgenomic replicon; 16.67 µg/ml,1.20E-05
same,% replicon RNA,HCV subgenomic replicon; 16.67 µg/ml,10%
same,"Quantity (HCV replicon RNA, real-time PCR)",HCV subgenomic replicon; 50 µg/ml,4.54E-06
same,% replicon RNA,HCV subgenomic replicon; 50 µg/ml,4%
same,"Quantity (HCV replicon RNA, real-time PCR)",HCV subgenomic replicon; 1.852 (7b: 1.85) µg/ml,7.41E-05
same,% replicon RNA,HCV subgenomic replicon; 1.852 (7b: 1.85) µg/ml,61%
same,EC50,HCV subgenomic replicon; real-time quantitative RT-PCR readout,7.3 µM
same,EC50,HCV subgenomic replicon; supplement dose-response data,2.5 µg/mL
same,CC50,[3]; compound 18 tested starting at 125 µg/mL,> 145 µM
same,CC50,[3]; supplement dose-response data,> 50 µg/mL
same,% cell metabolism,Huh 9-13 cells; 0.023 µg/ml,109%
same,% cell metabolism,Huh 9-13 cells; 0.069 µg/ml,104%
same,% cell metabolism,Huh 9-13 cells; 0.206 µg/ml,109%
same,% cell metabolism,Huh 9-13 cells; 0.617 µg/ml,105%
same,% cell metabolism,Huh 9-13 cells; 5.56 µg/ml,112%
same,% cell metabolism,Huh 9-13 cells; 16.67 µg/ml,115%
same,% cell metabolism,Huh 9-13 cells; 50 µg/ml,92%
same,% cell metabolism,Huh 9-13 cells; 1.852 (7b: 1.85) µg/ml,109%
"Nc1nc(SCc2cc3cc(Cl)ccc3oc2=O)c2nc[nH]c2n1 [Compound 9a, 2-Amino-6-[(6′-chlorocoumarin-3′-yl)methylthio]purine]",CC50,[1]; [4],> 139 µM
same,CC50,[1]; [7],> 347 µM
same,EC50,[2]; [5],65 µM
same,EC50,[2]; [8],48 µM
same,SI (CC50/EC50),[2]; [6],>2.1
same,SI (CC50/EC50),[2]; [9],>7.3
"Nc1nc(SCc2cc3cc(Cl)ccc3oc2=O)c2ncn([C@@H]3O[C@H](CO)[C@@H](O)[C@H]3O)c2n1 [Compound 9b, 2-Amino-6-(6′-chlorocoumarin-3′-yl)methylthio-9-(β-D-ribofuranos-1″-yl)purine]",CC50,[1]; [4],> 102 µM
same,EC50,[2]; [5],15 µM
same,SI (CC50/EC50),[2]; [6],>6.9
"O=c1nc(SCc2cc3cc(Cl)ccc3oc2=O)cc[nH]1 [Compound 11a, 4-[(6′-Chlorocoumarin-3′-yl)methylthio]uracil]",CC50,[1]; [4],> 156 µM
same,EC50,[2]; [5],18 µM
same,SI (CC50/EC50),[2]; [6],>8.6
"Cc1c[nH]c(=O)nc1SCc1cc2cc(Cl)ccc2oc1=O [Compound 11b, 4-(6′-Chlorocoumarin-3′-yl)methylthio-5-methyluracil]",CC50,[1]; [4],> 149 µM
same,EC50,[2]; [5],16 µM
same,SI (CC50/EC50),[2]; [6],>9.1
"O=c1oc2ccc(Cl)cc2cc1CSc1ccn([C@@H]2O[C@H](CO)[C@@H](O)[C@H]2O)c(=O)n1 [Compound 16a, 4-[(6′-Chlorocoumarin-3′-yl)methylthio]uridine]",CC50,[1]; [4],> 108 µM
same,EC50,[2]; [5],16 µM
same,SI (CC50/EC50),[2]; [6],>6.8
"Cc1cn([C@H]2C[C@H](O)[C@@H](CO)O2)c(=O)nc1SCc1cc2cc(Cl)ccc2oc1=O [Compound 16b, 4-[(6′-Chlorocoumarin-3′-yl)methylthio]thymidine]",CC50,[1]; [4],> 111 µM
same,EC50,[2]; [5],59 µM
same,SI (CC50/EC50),[2]; [6],>1.9
"Nc1ccnc(SCc2cc3cc(Cl)ccc3oc2=O)n1 [Compound 20, 4-Amino-2-[(6′-chlorocoumarin-3′-yl)methylthio]pyrimidine]",CC50,[1]; [4],> 156 µM
same,CC50,[1]; [7],> 391 µM
same,EC50,[2]; [5],53 µM
same,EC50,[2]; [8],21 µM
same,inhibition at 50 µg/mL,"[2]; Hepatitis C virus, Huh 5-2 cells, at 50 μg/mL",69.8%
same,inhibition at 125 µg/mL,"[2]; Hepatitis C virus, Huh 5-2 cells, at 125 μg/mL",< 80%
same,SI (CC50/EC50),[2]; [6],>2.9
same,SI (CC50/EC50),[2]; [9],>19
